Laboratory results as given in publication PMC12817916, “A small-molecule HSP90 inhibitor, NVP-HSP990, alleviates rotavirus infection” (Journal of Virology, 2025).

Legend:
MA104 cells = test: Cytotoxicity assay (CCK-8); type: cell-based, Rhesus monkey; conditions: MA104 cells, 24 h, CCK-8; read-out: CC50
Protocol: To evaluate the cytotoxicity of different HSP90 inhibitors in vitro, 10,000 MA104 cells, 30,000 Caco-2 cells, and 80,000 HT-29 cells in 100 µL complete DMEM medium were seeded in 96-well plates and cultured at 37°C and 5% CO2 for 24 h to reach about 100% confluence, and a cell-free control was also set. After removing the initial medium, 100 µL of complete DMEM medium containing the indicated concentrations of drugs was added to each well, and the plates were incubated at 37°C and 5% CO2. Twenty-four hours later, the drug-containing medium was replaced with 100 µL fresh complete DMEM medium plus 10 µL 5 mM CCK-8 reagent (Beyotime, China), and OD450 absorbance of each well was detected 3 h later using a microplate reader (Gene Company Limited, China). Relative cell viability rate = OD450 (drug-treated cells − cell-free control) / OD450 (0 µM drug-treated cells − cell-free control).
The 50% cytotoxic concentration (CC50) values were determined by nonlinear regression (curve fit) analysis in GraphPad Prism 9.0 (GraphPad Software). Dose-response data (drug concentrations as X-axis and normalized cell viability percentages as Y-axis) were fitted to a Dose-response Inhibition model ("[Inhibitor] vs. normalized response-Variable slope"). The curve was constrained to a bottom limit of 0% viability. The CC50 value was automatically calculated as the X-intercept at Y=50%. Model adequacy was validated using goodness-of-fit metrics (R²≥0.95), 95% confidence intervals, and residual distribution analysis. Final CC50 values were derived from three independent biological replicates and reported as mean ± SEM.

RV (Wa or SA11 strains) = test: RV replication in Caco-2 cells at varying MOI and timing of drug addition (PFA); type: cell-based, Rotavirus
Protocol: Rhesus monkey embryo kidney cell line MA104 cells (ATCC: CRL-2378.1) were provided by Dr. Elschner (Friedrich-Loeffler-Institute). Human intestinal epithelial cell lines Caco-2 cells (ATCC: HTB-37) and HT-29 cells (ATCC: HTB-38) were from ATCC and kept in our institute. All the cells were cultured in complete DMEM (Dulbecco’s modified Eagle medium [Gibco, USA] plus 10% [vol/vol] fetal bovine serum [FBS] [Gibco, USA] and 1% penicillin/streptomycin [Gibco, USA]) at 37°C with 5% CO2. RV Wa (G1P[8]) and SA11 (G3P[2]) strains were gifted by Professor Duan Zhaojun from the China Center for Disease Control and Prevention (Beijing, China) and propagated in MA104 cells. RV EDIM strain G16P[16] was gifted by Professor Wan Jianwei in Christophe Merieux Laboratory (Beijing) and propagated in BALB/c suckling mice. For RV infection in vitro, the viruses were diluted in DMEM, activated with 10 µg/mL trypsin (Gibco, USA) for 30 min at 37°C, and then added to target cells previously washed once with DMEM. After 1 h of incubation at 37°C, the inoculum was removed; the cells were then washed twice with DMEM (without FBS) and incubated with DMEM (without FBS) at 37°C, which was denoted as 0 h post-infection (h p.i.). HSP90 inhibitors (NVP-HSP990, GA, and 17-AAG) and Ribavirin (Selleck, USA) were dissolved in DMSO (Sigma, USA). The drugs were administered with indicated concentrations at 0 h p.i. in vitro unless otherwise stated, or orally administered in 10 µL volume using a pipette tip with the indicated quantity plus 90% (vol/vol) corn oil.
(A) Caco-2 cells were infected with RV (Wa or SA11 strains) at varying MOIs (0.001–10), followed by treatment with 100 nM NVP-HSP990 or an equal volume of DMSO (as a control) for 24 h. Viral replication was assessed using PFA. (B) Schematic diagram illustrating the timing of NVP-HSP990 addition and removal. (C) Caco-2 cells were infected with RV (MOI = 1) and treated with 100 nM NVP-HSP990 or with DMSO as control at indicated infection periods as shown in panel B. Viral replication was tested with PFA at 20 h p.i. (D) Caco-2 cells were infected with RV (MOI = 1) and treated with 100 nM HSP990 at 0, 4, 8, 12 h p.i. or treated with DMSO at 0 h p.i. Virus replication was tested with PFA at 24 h p.i. (E) Caco-2 cells were infected with RV (MOI = 1) and further cultivated with DMEM containing 100 nM NVP-HSP990 or DMSO as control for 18 h. Then the infected cells were harvested for qPCR analysis of the expression of RV genes encoding the VP2, VP6, NSP4, and NSP5 proteins. (F) Caco-2 cells were mock-infected with PBS or infected with RV (MOI = 1) and further cultivated with DMEM containing 100 nM NVP-HSP990 or DMSO as control for 18 h. Then the cells were harvested for WB analysis of RV structural proteins VP6 and VP7. […]

COc1cccc(-c2cc(F)ccc2[C@H]2Cc3nc(N)nc(C)c3C(=O)N2)n1 [NVP-HSP990]
CC50 (MA104 cells): > 100 µM | inhibitory effect on RV replication (RV (Wa or SA11 strains); 100 nM, administered after RV infection (0 ~ 20 h p.i.), PFA at 20 h p.i.): ~100 fold | reduction of final level of RV replication (RV (Wa or SA11 strains); 100 nM, administered during RV infection (−1 ~ 0 h p.i.), PFA at 20 h p.i.): ~ 1 fold | inhibition of RV replication across MOIs (RV (Wa or SA11 strains); Wa or SA11, MOI 0.001 to 10, 100 nM, 24 h p.i., PFA): Robust inhibition | establishment of RV infection or subsequent viral replication (RV (Wa or SA11 strains); pre-treatment prior to RV infection (−2 ~ −1 h p.i.)): did not significantly interfere
